Changes are numbered by the printed parent chain.
What was measured:
αV25′A β-αWT GlyR = molecular target: T1, αV25′A β-αWT GlyR (Homo sapiens, UniProt P23415+P48167, V305A); format: cell-based
T1 construct: The α R218-Q219 and β R242-Q243 are also the joining sites for chimeras constructed between the ECD and TMD; expressed in transfected cells; host or cells: HEK293 (ATCC)
T1 sequence (P23415 29-449 isoform P23415-2 V305A): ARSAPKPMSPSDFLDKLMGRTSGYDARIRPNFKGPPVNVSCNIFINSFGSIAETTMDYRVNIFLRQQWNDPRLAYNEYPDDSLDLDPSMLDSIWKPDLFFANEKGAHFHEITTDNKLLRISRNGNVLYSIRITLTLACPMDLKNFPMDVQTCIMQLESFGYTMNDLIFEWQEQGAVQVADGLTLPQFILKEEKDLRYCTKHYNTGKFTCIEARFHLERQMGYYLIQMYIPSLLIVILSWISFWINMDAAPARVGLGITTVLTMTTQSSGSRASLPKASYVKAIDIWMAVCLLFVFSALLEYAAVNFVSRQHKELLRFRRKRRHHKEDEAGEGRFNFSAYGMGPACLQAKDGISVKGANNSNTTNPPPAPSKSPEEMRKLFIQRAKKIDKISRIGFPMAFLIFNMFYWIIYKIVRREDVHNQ
T1 sequence (P48167+P23415 with tags, fused parts or gaps P48167:V266M/P48167:F268Y/P48167:M270L/P48167:M271I/P48167:G272Q/P48167:V273M/P48167:A275I/P48167:T277S/P48167:V282I/P48167:L286I/P48167:P292M/P48167:S295A/P48167:A296P/P48167:P300G): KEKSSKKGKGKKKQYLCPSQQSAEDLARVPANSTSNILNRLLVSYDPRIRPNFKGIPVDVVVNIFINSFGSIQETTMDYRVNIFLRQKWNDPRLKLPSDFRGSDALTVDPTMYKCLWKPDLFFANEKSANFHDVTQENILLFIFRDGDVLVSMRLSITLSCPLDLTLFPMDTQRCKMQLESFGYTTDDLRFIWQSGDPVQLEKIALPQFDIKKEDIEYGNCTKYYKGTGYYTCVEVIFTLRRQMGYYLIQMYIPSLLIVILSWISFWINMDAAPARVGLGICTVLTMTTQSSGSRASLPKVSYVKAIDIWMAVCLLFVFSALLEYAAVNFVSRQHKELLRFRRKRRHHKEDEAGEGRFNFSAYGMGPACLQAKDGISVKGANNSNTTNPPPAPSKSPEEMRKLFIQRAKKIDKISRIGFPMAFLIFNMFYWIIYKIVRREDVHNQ
Method: (§1) The human GlyR α1 and β subunit cDNAs were subcloned into the pcDNA3.1zeo+ (Invitrogen) or pGEMHE [44] plasmid vectors for expression in HEK293 cells or Xenopus oocytes, respectively. Site-directed mutagenesis and chimera construction were performed using the QuickChange (Stratagene, La Jolla, CA, USA) mutagenesis and multiple-template-based sequential PCR protocols, respectively.
(§2) For the β-α chimeras used for determining the effect of hyperekplexia-mimicking mutations on α1 β GlyR channel function, the Thr at the M2 6′ position was replaced by a Cys. […] Through such a modification, picrotoxin resistance was used to distinguish the heteromeric α1 β-α GlyR from the homomeric α1 GlyR when the α1 and β-α subunits were co-expressed.
(§3) The effects of the hyperekplexia-mimicking mutations, K24′A, V25′A and Y27′A, were examined on GlyRs expressed in HEK293 cells (ATCC). Details of the HEK293 cell culture, GlyR expression and electrophysiological recording of the HEK293 cells are described elsewhere. Briefly, HEK293 cells were maintained in DMEM supplemented with 10% fetal bovine serum. Cells were transfected using a calcium phosphate precipitation protocol. When co-transfecting the α1 together with the β or any other chimera subunits, their respective cDNAs were combined in a ratio of 1∶10. In addition, the pEGFP-N1 (Clontech) was co-transfected to facilitate identifying the transfected cells. […] Cells were treated with external Ringer's solution and internal CsCl solution [30]. Cells were voltage-clamped at −40 mV. When the heteromeric GlyRs were expressed, the picrotoxin sensitivity was tested to confirm that the majority of receptors are heteromers, [30].
(§4) Results are expressed as mean±standard error of the mean of three or more independent experiments. […] Statistical significance was determined using the Student's t-test.

αWT β-αV25′A GlyR = molecular target: T2, αWT β-αV25′A GlyR (Homo sapiens, UniProt P23415+P48167, A275I/A296P/F268Y/G272Q/L286I/M270L/M271I/P292M/P300G/S295A/T277S/V266M/V273M/V282I/V305A); format: cell-based
T2 construct: The α R218-Q219 and β R242-Q243 are also the joining sites for chimeras constructed between the ECD and TMD; expressed in transfected cells; host or cells: HEK293 (ATCC)
T2 sequence (P23415 29-449 isoform P23415-2): T1 sequence (P23415 29-449 isoform P23415-2 V305A) with A277V
T2 sequence (P48167+P23415 with tags, fused parts or gaps P48167:V266M/P48167:F268Y/P48167:M270L/P48167:M271I/P48167:G272Q/P48167:V273M/P48167:A275I/P48167:T277S/P48167:V282I/P48167:L286I/P48167:P292M/P48167:S295A/P48167:A296P/P48167:P300G/P23415:V305A): T1 sequence (P48167+P23415 with tags, fused parts or gaps P48167:V266M/P48167:F268Y/P48167:M270L/P48167:M271I/P48167:G272Q/P48167:V273M/P48167:A275I/P48167:T277S/P48167:V282I/P48167:L286I/P48167:P292M/P48167:S295A/P48167:A296P/P48167:P300G) with V301A
Method: as §1, §2, §3, §4

[1] = αV25′A β-αWT, HEK293, with glycine at EC50 of α1 homomer
[2] = αWT β-αV25′A, HEK293, with glycine at EC50 of α1 homomer

Row | Compound | Imax (αV25′A β-αWT GlyR) [nA] | nH (αV25′A β-αWT GlyR) | Imax (αWT β-αV25′A GlyR) [nA] | nH (αWT β-αV25′A GlyR) | 10uM PTX inhibition (%) (αV25′A β-αWT GlyR; [1]) | 100uM PTX inhibition (%) (αV25′A β-αWT GlyR; [1]) | 10uM PTX inhibition (%) (αWT β-αV25′A GlyR; [2]) | 100uM PTX inhibition (%) (αWT β-αV25′A GlyR; [2])
1 | NCC(=O)O [glycine] | 8.9±1.5 | 1.7±0.3 | 11.0±1.1 | 2.2±0.3 |  |  |  | 
2 | picrotoxin [PTX] |  |  |  |  | 12.0±2.5 | 37±6 | 8.8±1.6 | 31±1
